Test results: ChEMBL document CHEMBL5696442, “Discovery of type II inhibitors of TGFβ-activated kinase 1 (TAK1) and mitogen-activated protein kinase kinase kinase kinase 2 (MAP4K2)” (J Med Chem, 2015)

Legend:
[1] = target: Ribosomal protein S6 kinase alpha-5 (Homo sapiens) (UniProt O75582); test: Inhibition of MSK1 domain1 ATP Loop labeling site in human Huh-7 cells at 1 uM by KiNativ Profiling analysis relative to control; assay type: cell-based
[2] = target: Casein kinase I isoform alpha (Homo sapiens) (UniProt P48729); test: Inhibition of CK1a Lys2 labeling site in human Huh-7 cells at 1 uM by KiNativ Profiling analysis relative to control; assay type: cell-based
[3] = target: Calcium/calmodulin-dependent protein kinase type II subunit delta (Homo sapiens) (UniProt Q13557); test: Inhibition of CaMK2d Lys1 labeling site harbouring IPTGQEYAAKIINTK in human Huh-7 cells at 1 uM by KiNativ Profiling analysis relative to control; assay type: cell-based
[4] = target: Serine/threonine-protein kinase 10 (Homo sapiens) (UniProt O94804); test: Inhibition of LOK K2 labeling site harbouring DLKAGNVLMTLEGDIR in human Huh-7 cells at 10 uM by KiNativ Profiling analysis relative to control; assay type: cell-based
[5] = target: Serine/threonine-protein kinase 38-like (Homo sapiens) (UniProt Q9Y2H1); test: Inhibition of NDR2 (unknown origin) at 10 uM by Ambit Kinomescan binding assay relative to control
[6] = target: Microtubule-associated serine/threonine-protein kinase 2 (Homo sapiens) (UniProt Q6P0Q8); test: Inhibition of MAST2 Lys2 labeling site in human A-375 cells at 5 uM by KiNativ Profiling analysis relative to control; assay type: cell-based
[7] = target: Casein kinase I isoform epsilon (Homo sapiens) (UniProt P49674); test: Inhibition of CK1epsilon Lys2 labeling site in human A-375 cells at 0.5 uM by KiNativ Profiling analysis relative to control; assay type: cell-based
[8] = target: T1, Scaffold protein ILK (Homo sapiens) (UniProt Q13418); test: Inhibition of ILK K1 labeling site in human Huh-7 cells at 10 uM by KiNativ Profiling analysis relative to control; assay type: cell-based
T1 sequence (whole entry): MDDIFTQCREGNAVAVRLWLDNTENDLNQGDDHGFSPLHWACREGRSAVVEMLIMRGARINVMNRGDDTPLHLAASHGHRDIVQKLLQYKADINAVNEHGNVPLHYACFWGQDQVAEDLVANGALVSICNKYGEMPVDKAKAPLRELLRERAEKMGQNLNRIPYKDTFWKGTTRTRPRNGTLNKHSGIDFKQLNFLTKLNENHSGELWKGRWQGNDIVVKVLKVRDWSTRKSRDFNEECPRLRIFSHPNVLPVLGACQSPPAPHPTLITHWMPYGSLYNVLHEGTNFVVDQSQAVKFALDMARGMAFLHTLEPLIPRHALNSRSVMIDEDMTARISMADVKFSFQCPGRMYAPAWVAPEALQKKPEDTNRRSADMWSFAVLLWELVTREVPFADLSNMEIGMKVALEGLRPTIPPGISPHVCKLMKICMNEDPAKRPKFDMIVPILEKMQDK

[9] = target: Receptor tyrosine-protein kinase erbB-4 (Homo sapiens) (UniProt Q15303); test: Inhibition of ERBB4 (unknown origin) at 10 uM by Ambit Kinomescan binding assay
[10] = target: T2, Inhibitor of nuclear factor kappa-B kinase subunit alpha (Homo sapiens) (UniProt O15111); test: Inhibition of IKKa Lys2 labeling site in human A-375 cells at 5 uM by KiNativ Profiling analysis relative to control; assay type: cell-based
T2 sequence (whole entry): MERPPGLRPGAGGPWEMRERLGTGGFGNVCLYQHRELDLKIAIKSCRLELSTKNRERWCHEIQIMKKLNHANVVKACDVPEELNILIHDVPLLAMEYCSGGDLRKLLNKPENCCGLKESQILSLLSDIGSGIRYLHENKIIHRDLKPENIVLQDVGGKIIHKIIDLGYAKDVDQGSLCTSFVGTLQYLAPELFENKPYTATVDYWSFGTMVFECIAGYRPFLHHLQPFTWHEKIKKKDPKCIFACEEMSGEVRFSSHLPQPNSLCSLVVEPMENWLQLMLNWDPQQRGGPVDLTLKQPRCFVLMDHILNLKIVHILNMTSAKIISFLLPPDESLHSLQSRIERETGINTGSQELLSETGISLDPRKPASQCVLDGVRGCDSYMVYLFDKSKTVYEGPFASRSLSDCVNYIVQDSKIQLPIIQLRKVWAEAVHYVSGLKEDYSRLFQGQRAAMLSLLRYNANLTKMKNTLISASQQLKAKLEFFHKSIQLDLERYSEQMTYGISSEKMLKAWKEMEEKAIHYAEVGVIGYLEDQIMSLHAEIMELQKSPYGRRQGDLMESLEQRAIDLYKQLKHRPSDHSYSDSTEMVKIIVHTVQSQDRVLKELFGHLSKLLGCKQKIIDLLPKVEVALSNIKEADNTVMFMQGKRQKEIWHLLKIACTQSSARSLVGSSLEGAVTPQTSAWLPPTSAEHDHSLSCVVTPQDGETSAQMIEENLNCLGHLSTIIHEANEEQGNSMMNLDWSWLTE

[11] = target: Serine/threonine-protein kinase 16 (Homo sapiens) (UniProt O75716); test: Inhibition of MPSK1 Lys2 labeling site in human A-375 cells at 0.5 uM by KiNativ Profiling analysis relative to control; assay type: cell-based
[12] = target: Phosphatidylinositol 4,5-bisphosphate 3-kinase catalytic subunit alpha isoform (Homo sapiens) (UniProt P42336); test: Inhibition of PIK3CA ATP labeling site in human A-375 cells at 0.05 uM by KiNativ Profiling analysis relative to control; assay type: cell-based
[13] = target: Casein kinase I isoform delta (Homo sapiens) (UniProt P48730); test: Inhibition of CK1delta Lys2 labeling site in human A-375 cells at 5 uM by KiNativ Profiling analysis relative to control; assay type: cell-based
Sequence of Casein kinase I isoform delta (Homo sapiens) (P48730 whole entry, looked up, canonical isoform): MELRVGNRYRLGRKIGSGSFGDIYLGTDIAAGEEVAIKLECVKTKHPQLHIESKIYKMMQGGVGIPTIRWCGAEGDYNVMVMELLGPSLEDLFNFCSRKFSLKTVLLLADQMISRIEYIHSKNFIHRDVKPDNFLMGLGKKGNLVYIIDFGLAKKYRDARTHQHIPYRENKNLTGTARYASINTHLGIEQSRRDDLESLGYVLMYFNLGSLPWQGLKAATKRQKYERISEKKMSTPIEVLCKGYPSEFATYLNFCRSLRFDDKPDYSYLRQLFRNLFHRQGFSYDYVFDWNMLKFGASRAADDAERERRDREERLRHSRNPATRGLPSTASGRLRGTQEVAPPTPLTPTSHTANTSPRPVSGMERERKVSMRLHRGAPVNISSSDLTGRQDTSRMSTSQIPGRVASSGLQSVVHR

Sequence of Serine/threonine-protein kinase 38-like (Homo sapiens) (Q9Y2H1 2-464 limits assumed): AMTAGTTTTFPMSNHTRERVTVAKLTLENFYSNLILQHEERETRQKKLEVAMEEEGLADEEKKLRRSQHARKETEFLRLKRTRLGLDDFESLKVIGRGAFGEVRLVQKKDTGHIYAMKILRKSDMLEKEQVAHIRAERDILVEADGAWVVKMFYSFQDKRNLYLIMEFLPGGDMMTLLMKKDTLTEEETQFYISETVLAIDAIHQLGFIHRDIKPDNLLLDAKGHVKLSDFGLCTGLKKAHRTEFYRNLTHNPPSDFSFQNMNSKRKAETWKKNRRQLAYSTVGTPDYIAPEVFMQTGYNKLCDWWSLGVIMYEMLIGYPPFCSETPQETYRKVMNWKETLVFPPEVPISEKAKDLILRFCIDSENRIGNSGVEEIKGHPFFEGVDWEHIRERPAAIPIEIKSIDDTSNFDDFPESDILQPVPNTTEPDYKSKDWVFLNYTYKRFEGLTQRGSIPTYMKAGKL
Sequence of Ribosomal protein S6 kinase alpha-5 (Homo sapiens) (O75582 whole entry, looked up, the tested form may be a part, canonical isoform): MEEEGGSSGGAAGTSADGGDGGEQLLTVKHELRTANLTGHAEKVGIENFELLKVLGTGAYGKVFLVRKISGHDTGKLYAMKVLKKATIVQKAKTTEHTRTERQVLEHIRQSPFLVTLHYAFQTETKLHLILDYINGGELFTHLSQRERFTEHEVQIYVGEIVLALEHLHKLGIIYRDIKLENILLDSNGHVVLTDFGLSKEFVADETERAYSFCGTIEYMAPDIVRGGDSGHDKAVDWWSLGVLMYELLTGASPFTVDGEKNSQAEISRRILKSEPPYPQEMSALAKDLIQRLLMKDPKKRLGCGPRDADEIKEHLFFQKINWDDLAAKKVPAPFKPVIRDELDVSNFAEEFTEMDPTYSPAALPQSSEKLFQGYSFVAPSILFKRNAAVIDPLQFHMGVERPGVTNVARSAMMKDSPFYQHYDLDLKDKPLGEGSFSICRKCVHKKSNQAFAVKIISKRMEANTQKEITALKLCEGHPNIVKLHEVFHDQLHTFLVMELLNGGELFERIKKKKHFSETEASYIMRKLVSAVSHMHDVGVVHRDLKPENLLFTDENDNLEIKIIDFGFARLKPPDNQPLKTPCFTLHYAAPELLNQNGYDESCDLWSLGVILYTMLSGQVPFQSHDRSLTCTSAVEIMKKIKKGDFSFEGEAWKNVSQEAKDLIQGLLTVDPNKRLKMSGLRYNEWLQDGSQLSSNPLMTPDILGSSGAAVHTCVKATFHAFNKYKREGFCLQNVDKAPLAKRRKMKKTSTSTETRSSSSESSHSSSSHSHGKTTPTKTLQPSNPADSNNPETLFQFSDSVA
Sequence of Calcium/calmodulin-dependent protein kinase type II subunit delta (Homo sapiens) (Q13557 whole entry): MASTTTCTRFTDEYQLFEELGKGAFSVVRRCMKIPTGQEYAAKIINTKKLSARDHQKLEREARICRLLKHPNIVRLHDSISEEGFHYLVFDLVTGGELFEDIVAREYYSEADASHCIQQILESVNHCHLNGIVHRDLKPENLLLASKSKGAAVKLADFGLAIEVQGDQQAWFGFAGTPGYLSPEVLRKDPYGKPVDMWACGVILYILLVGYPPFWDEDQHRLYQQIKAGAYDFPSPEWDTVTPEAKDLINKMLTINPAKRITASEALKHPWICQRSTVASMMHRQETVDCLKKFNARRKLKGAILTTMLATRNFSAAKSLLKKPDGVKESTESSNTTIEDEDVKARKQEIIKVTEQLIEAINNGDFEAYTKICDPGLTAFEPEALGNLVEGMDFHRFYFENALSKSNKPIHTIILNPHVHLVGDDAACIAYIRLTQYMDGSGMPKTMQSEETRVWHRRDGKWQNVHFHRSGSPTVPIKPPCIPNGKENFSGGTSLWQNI
Sequence of Phosphatidylinositol 4,5-bisphosphate 3-kinase catalytic subunit alpha isoform (Homo sapiens) (P42336 whole entry, canonical isoform): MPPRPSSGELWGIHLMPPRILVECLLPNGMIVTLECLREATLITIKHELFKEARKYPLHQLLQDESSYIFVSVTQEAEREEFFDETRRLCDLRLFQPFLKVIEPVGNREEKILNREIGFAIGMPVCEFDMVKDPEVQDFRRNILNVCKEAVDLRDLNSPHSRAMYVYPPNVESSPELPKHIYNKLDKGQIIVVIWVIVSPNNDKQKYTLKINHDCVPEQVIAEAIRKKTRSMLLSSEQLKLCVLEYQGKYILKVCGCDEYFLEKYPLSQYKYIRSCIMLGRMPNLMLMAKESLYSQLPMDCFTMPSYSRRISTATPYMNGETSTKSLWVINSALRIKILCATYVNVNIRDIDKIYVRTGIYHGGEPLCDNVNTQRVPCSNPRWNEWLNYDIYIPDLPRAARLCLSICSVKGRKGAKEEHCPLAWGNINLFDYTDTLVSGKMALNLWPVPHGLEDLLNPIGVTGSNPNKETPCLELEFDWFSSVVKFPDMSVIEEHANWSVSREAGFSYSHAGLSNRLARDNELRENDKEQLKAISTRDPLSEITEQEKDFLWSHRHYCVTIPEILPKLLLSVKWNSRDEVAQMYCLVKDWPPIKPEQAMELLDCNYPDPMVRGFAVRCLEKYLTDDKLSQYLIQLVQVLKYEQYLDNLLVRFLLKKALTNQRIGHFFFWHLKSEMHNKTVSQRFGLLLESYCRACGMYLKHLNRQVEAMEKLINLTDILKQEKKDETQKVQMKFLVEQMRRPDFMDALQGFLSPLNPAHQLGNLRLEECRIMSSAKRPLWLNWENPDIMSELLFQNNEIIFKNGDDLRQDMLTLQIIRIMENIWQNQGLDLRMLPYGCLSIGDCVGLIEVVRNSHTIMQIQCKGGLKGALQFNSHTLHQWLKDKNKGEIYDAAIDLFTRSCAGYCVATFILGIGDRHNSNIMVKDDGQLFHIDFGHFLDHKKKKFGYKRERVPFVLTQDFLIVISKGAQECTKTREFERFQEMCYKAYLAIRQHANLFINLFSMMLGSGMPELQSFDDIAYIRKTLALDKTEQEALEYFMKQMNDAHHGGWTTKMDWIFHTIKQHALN
Sequence of Microtubule-associated serine/threonine-protein kinase 2 (Homo sapiens) (Q6P0Q8 whole entry, canonical isoform): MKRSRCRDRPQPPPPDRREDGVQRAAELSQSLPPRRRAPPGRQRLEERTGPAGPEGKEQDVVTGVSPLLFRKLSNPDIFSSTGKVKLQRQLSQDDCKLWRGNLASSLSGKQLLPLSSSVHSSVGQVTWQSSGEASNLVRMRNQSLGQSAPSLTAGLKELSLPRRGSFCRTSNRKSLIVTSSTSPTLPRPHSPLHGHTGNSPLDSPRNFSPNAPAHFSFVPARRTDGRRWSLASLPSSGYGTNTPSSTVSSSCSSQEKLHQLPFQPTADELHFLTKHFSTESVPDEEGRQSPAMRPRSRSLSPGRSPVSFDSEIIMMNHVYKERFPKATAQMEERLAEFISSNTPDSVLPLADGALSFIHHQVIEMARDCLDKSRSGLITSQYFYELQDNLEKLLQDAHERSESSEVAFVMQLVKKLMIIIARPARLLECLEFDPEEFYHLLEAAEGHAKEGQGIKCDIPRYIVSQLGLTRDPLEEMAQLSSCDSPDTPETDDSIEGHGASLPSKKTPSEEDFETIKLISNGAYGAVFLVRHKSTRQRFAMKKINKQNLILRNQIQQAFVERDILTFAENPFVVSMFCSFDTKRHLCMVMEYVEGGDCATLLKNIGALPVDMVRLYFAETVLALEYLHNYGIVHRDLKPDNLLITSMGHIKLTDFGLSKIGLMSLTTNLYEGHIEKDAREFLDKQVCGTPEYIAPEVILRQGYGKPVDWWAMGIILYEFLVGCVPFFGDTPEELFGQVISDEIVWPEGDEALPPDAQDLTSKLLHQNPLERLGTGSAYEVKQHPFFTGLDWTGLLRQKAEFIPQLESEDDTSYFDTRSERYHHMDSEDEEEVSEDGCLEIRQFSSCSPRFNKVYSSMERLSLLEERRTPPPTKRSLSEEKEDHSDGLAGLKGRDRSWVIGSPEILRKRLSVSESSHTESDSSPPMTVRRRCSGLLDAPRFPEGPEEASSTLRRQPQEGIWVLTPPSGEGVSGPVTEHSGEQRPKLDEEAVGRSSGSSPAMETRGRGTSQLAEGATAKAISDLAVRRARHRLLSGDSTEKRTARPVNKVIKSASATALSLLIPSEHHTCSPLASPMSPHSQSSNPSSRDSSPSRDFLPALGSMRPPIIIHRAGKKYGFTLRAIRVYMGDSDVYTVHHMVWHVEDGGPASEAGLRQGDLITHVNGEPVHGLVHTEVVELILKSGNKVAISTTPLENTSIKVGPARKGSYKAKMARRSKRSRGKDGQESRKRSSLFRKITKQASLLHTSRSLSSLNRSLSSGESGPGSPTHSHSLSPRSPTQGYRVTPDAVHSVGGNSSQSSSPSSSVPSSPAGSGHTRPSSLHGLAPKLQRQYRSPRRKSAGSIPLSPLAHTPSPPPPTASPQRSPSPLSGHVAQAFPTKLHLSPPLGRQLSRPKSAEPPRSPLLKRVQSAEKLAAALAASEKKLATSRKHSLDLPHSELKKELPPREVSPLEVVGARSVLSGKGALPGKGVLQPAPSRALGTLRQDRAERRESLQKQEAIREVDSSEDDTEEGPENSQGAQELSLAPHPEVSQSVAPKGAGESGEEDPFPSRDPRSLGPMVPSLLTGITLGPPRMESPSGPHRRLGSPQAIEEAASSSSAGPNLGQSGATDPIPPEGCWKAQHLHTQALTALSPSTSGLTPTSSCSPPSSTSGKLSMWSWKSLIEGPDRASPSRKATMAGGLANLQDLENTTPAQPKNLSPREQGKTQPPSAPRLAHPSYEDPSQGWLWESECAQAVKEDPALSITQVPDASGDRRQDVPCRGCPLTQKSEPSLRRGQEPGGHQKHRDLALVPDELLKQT

## CNc1cc(Oc2cc(C(=O)Nc3cc(N4CCN(C)CC4)cc(C(F)(F)F)c3)ccc2C)ncn1
[1]
  inhibition: 11.5%
[2]
  inhibition: -1.9%
[3]
  inhibition: 9.1%

## CCN1CCN(Cc2ccc(NC(=O)c3ccc(C)c(Oc4ccnc5[nH]ccc45)c3)cc2C(F)(F)F)CC1
[4]
  inhibition: 13.5%
[5]
  inhibition: 6.8%
[6]
  inhibition: -6.1%
[7]
  inhibition: 3.3%
[8]
  inhibition: -5.7%
[9]
  inhibition: 28%
[10]
  inhibition: 72.4%

## CCN1CCN(Cc2ccc(NC(=O)c3ccc(C)c(/C=C/c4cnc5[nH]ccc5c4OC)c3)cc2C(F)(F)F)CC1
[11]
  inhibition: 15%
[12]
  inhibition: 39%
[13]
  inhibition: 1.4%
